Broadly, the Ki is the equilibrium dissociation constant of an inhibitor or competing ligand from its target. Read a high Ki as a looser hold on the target. By IC50 is commonly meant the point on the concentration scale where inhibition reaches its midpoint.

Like-named read-outs stand apart in the source and are kept apart here. Non-standard residues stand in square brackets, D forms with d. Residues, ends and D or L forms follow the SMILES beside them. No end group written: not given here. Met(O) = CS(=O)CC[C@H](N)C(=O)O

Series [1] deals with T1, ACE (from rabbit lung) (Oryctolagus cuniculus, UniProt P12822).
T1 construct: ACE (from rabbit lung); purchased Sigma-Aldrich Co. (St. Louis, MO, USA); host or cells: rabbit lung tissue
T1 sequence (P12822 34-1310): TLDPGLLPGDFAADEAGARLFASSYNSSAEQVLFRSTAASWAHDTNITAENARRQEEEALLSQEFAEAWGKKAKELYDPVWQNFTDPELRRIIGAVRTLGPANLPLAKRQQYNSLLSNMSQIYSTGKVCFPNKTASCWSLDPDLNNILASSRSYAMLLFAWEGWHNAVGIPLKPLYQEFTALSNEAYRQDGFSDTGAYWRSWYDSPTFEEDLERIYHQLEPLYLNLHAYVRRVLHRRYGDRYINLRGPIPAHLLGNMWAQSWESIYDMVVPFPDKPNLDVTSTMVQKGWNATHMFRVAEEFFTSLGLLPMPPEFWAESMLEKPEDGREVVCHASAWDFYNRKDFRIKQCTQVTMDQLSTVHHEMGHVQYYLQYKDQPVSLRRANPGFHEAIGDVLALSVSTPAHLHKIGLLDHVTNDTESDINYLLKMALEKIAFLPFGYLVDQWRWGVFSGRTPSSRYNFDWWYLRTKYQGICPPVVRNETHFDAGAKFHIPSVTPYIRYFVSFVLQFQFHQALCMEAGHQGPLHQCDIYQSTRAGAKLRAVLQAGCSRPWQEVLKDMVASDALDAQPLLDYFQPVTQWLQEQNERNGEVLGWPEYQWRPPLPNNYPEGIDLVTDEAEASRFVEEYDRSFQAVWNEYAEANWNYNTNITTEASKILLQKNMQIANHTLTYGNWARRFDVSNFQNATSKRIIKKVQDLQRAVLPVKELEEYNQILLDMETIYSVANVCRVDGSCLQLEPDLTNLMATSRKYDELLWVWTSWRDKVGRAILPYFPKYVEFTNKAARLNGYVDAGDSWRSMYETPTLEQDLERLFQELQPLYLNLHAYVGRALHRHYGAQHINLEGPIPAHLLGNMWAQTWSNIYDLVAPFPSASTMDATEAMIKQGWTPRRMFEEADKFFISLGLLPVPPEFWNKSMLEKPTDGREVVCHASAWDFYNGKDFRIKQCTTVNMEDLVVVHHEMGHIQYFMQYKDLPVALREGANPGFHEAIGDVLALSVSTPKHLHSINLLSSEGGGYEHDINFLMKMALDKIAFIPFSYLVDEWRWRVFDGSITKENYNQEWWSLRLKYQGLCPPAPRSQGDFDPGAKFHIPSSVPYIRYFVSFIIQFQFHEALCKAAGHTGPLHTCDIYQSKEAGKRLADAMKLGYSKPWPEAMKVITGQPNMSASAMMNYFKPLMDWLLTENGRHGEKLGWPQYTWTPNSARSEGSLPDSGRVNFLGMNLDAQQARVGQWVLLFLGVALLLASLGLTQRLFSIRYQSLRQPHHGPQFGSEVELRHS
Kind of series: Stability of peptides against ACE. The series is classed as in vitro ADME. The following applies: 0.1 mg/mL peptide with 0.1 U/mL ACE, 37 °C, 24 h; read-out ACE inhibitory activity; mean ± SD, n = 3. From the text: (§1) ACE (from rabbit lung), hippuryl-histidyl-leucine (HHL), high-performance liquid chromatography (HPLC)-grade acetonitrile (ACN), trifluoroaceticacid (TFA) and porcine pancreatin (8× USP) were purchased from Sigma-Aldrich Co. (St. Louis, MO, USA). Trypsin (EC […], ≥250. N.F.U/mg solid), pepsin (EC 3.4.23.1, ≥250 U/mg solid), and captopril (>99% purity) were obtained from Solarbio (Beijing, China). All other chemical reagents were of analytical grade.
The stability of peptides against ACE was assayed according to Salampessy. J and Fujita. H [48, 49]. 30 μL of peptides (0.1 mg/mL) reacted with 30 μL 0.1 U/mL ACE solution at 37 °C for 24 h. The ACE was then inactivated through boiling the solution for 10 min. Then, 20 μL of peptides were used to detect ACE inhibitory activity in the above method.

The target of series [2] is T1, ACE (from rabbit lung). As to the kind of experiment: Determination of inhibitory pattern (Lineweaver-Burk plots). The series is classed as biochemical. As to conditions: X-axis intercept of the plot of Lineweaver-Burk slopes against peptide concentration. Here is the method: as §1
(§2) ACE inhibition activity was assayed according to Cushman and Cheung, with some modification. ACE was dissolved in sodium borate buffer (pH 8.3, containing 0.3 M sodium chloride) to 0.1 U/mL for the assay. Synthetic peptides were dissolved in distilled water to seven concentration levels. Then, 20 μL of a certain concentration of peptide was mixed with 10 μL ACE solution. The mixture was incubated at 37 °C for 5 min, and then 50 μL of 5 mM HHL (sodium borate buffer pH 8.3, containing 0.3 M sodium chloride) was added to the above mixture to start the reaction. […] The absorbance was detected at 228 nm. […] The activity of ACE inhibition was calculated as followed:ACE inhibitory activity (%) = (Acontrol − Ainhibitor)/Acontrol × 100 where Ainhibitor is the relative area of the hippuric acid (HA) peak obtained from the reaction of ACE and HHL with inhibitor. […]

A short description of series [3]: Observed water solubility of the peptide. It is filed as physicochemical. As to conditions: when the concentration was lower than 10 mg/mL; solubility gradually decreased above 10 mg/mL. The text has this: The properties and stabilities of peptides are prerequisites for the preparation of "functional peptides". According to the information in the Innovagen server, FQIN [M(O)] CILR has poor water solubility. […] The hydrophobicity of FQIN [M(O)] CILR is related to the presence of hydrophobic amino acids, such as Phe, Leu, Ile, and Met. The hydrophobicity of FQIN [M(O)] CILR may facilitate the binding of peptides to the hydrophobic active center of ACE, in turn, produce better inhibitory activity.

Series [4] deals with T1, ACE (from rabbit lung). As to the kind of experiment: ACE inhibition activity assay (HHL substrate, hippuric acid by RP-HPLC). The following applies: 0.1 U/mL ACE, 5 mM HHL, sodium borate buffer pH 8.3 with 0.3 M NaCl, 37 °C, 60 min; seven peptide concentrations; triplicate, mean ± SD. The series is classed as biochemical. Here is the method: as §1, §2
Series [5] relates to spontaneously hypertensive rats (SHRs). As to the kind of experiment: Antihypertensive effect on SHRs (tail-cuff SBP and DBP). It is filed as in vivo, rat. As to conditions: positive control, single oral dose 10 mg/kg body weight. On the procedure:
Spontaneously hypertensive rats (SHRs) (male, 10-week-old, 250–300 g body weight, specific, pathogen-free) were bought from Vital River Laboratory Animal Co., Ltd. (Beijing, China). Animals used in this study were maintained in accordance with the guidelines of the Institutional Research Council’s Guide for the Care and Use of Laboratory Animals. SHRs were housed under 12 h day/night cycle at 22 ± 2 °C and fed with tap water and a standard diet ad libitum. The SHRs were randomly separated into a positive group, control group, and two experiment groups. There were six SHRs in each group. Before the formal start of the test, SHRs had to adapt to measuring the environment in advance. Once the tail systolic blood pressure (SBP) rates were above 180 mmHg, the gavage administration could start.
Normal saline was the solvent to dissolve peptides and control reagent. Captopril (99% purity, Solarbio Technology Co., Ltd., Beijing, China) was the positive group. The same volume of normal saline was the control group. Tail-cuff method was performed for systolic blood pressure (SBP) and diastolic blood pressure (DBP) measurements with a non-invasive CODA device (Kent Scientific Co., Torrington, CT, USA). The blood pressure was measured in 0, 1, 2, 4, 6, 8 h after gavage administration. Measurements were repeated three times at each time point.

The test system of series [6] is ACE. More on the design: method as in 6 sources, ref 31 = [31]; doi:10.1007/s00217-017-2886-2; 31. Cao D. Lv X. Xu X. Yu H. Sun X. Xu N. Purification and identification of a novel ACE inhibitory peptide from marine alga Gracilariopsis lemaneiformis protein hydrolysate Eur. Food Res. Technol. 20 ||| ref 32, 33 = [32]; doi:10.1016/j.procbio.2017.08.009; 32. Guo M. Chen X. Wu Y. Zhang L. Huang W. Yuan Y. Fang M. Xie J. Wei D. Angiotensin I-converting enzyme inhibitory peptides from Sipuncula ( Phascolosoma esculenta ): Purification, identification, mo || [33]; doi:10.1080/00021369.1987.10868415; 33. Maruyama S. Mitachi H. Awaya J. Kurono M. Tomizuka N. Suzuki H. Angiotensin I-Converting Enzyme Inhibitory Activity of the C-Terminal Hexapeptide of αs1-Casein Agric. Biol. Chem. Tokyo 1987 51 255 ||| ref 7 = [7]; 7. Fujita H. Yokoyama K. Yoshikawa M. Classification and antihypertensive activity of angiotensin I-converting enzyme inhibitory peptides derived from food proteins J. Food Sci. 2000 65 564 569 ||| ref 43 = [43]; PMID 24866326; doi:10.1021/jf501368a; 43. Duan X. Wu F. Li M. Yang N. Wu C. Jin Y. Yang J. Jin Z. Xu X. Naturally occurring angiotensin I-Converting enzyme inhibitory peptide from a fertilized egg and its inhibitory mechanism J. Agric. Fo ||| ref 44 = [44]; doi:10.1016/j.foodres.2012.11.002; 44. Liu X. Zhang M. Jia A. Zhang Y. Zhu H. Zhang C. Sun Z. Liu C. Purification and characterization of angiotensin I converting enzyme inhibitory peptides from jellyfish Rhopilema esculentum Food Res. ||| ... The following applies: cited from earlier work; for Inhibition pattern on ACE: peptides isolated from food stuffs, ref 37 (IFL), 38 (AVKVL), 39 (VELWP).

For series [7] the following is noted: cited from earlier work. From the text: Antihypertensive activity of peptides were further evaluated using spontaneously hypertensive rats (SHRs). […] Overall, drugs can exert better antihypertensive effects than hydrolysates and antihypertensive peptides derived from foods. […] Both FQIN [M(O)] CILR and TGAPCR decreased the SBP of SHRs. FQIN [M(O)] CILR and TGAPCR reduced the SBP of SHRs by 34 mmHg and 28 mmHg to the maximum extent, re ...

The mark [8] stands for this setting: peptide isolated from dried bonito, before pre-incubation with ACE, read-out: IC50 (ACE inhibition).
The mark [9] stands for this setting: peptides isolated from jellyfish, read-out: IC50 (ACE inhibition).
Where [10] appears, read: reported C-terminal arginine ACE inhibitory peptides, read-out: IC50 (ACE inhibition).

For `CC[C@H](C)[C@H](NC(=O)[C@H](CS)NC(=O)[C@H](CC[S+](C)[O-])NC(=O)[C@H](CC(N)=O)NC(=O)[C@@H](NC(=O)[C@H](CCC(N)=O)NC(=O)[C@@H](N)Cc1ccccc1)[C@@H](C)CC)C(=O)N[C@@H](CC(C)C)C(=O)N[C@@H](CCCNC(=N)N)C(=O)O` (stereo partly drawn) [FQIN [M(O)] CILR] (H-FQIN[Met(O)]CILR-OH), the “Stability against ACE hydrolysis (ACE inhibitory activity after incubation with ACE)” value in series [1] is on record as “stable ACE inhibitors but not substrates of ACE”. In addition, the affinity in series [2], expressed as Ki, was 710 ± 40 µM. The “water solubility found in the authors' study” value in series [3] is given as “good water solubility”. For the same compound, the 50% inhibitory concentration (IC50) in series [4] worked out at 9.64 ± 0.36 µM.
As for `C[C@H](CS)C(=O)N1CCC[C@H]1C(=O)O` [captopril], the “Antihypertensive effect on SHRs (in words)” value in series [5] is “maximal antihypertensive effect”.
As for AVKVL, the “Inhibition pattern on ACE” value in series [6] is recorded as “noncompetitive inhibition”.
As to FFGRCVSP, the IC50 in series [6] (setting [8]) is 0.4 µM; in series [6] (peptide isolated from dried bonito, hydrolyzed by ACE to fragments, read-out: IC50 after hydrolysis by ACE), 4.6 µM.
As to GDIGY, the IC50 in series [6] (setting [9]) is 32.6 µM. Also, the “Reduction of SBP” value in series [7] was 20.67 mmHg.
Turning to GNGSGYVSR, the IC50 in series [6] (setting [10]) was 29 µM.
For the compound HLFGPPGKKDPV, the half-inhibitory concentration (IC50) in series [6] (peptide separated from fertilized eggs, read-out: IC50 (ACE inhibition)) is 125 µM. For the same compound, the “Greatest SBP drop” value in series [7] (oral dose of 10 mg/kg) is 30 mmHg.
Consider LKPNM, for which the “IC50 after the pre-incubation with ACE, as fraction of the IC50 before” value in series [6] (hydrolyzed into LKP and NM) is listed as 1/3. Moreover, the IC50 in series [6] (setting [8]) was 2.4 µM.
With QPGPT, the IC50 in series [6] (setting [9]) is 80.7 µM. Further, the “Reduction of SBP” value in series [7] is reported as 13.75 mmHg.
Regarding QVEY, the IC50 in series [6] (peptide from trypsin hydrolyzate of G. lemaneiformis, read-out: IC50 (ACE inhibition)) was 474 µM.
Take TGAPCR [TGAPCR]: the “Stability against ACE hydrolysis (ACE inhibitory activity after incubation with ACE)” value in series [1] is recorded as “stable ACE inhibitors but not substrates of ACE”. Also, the affinity in series [2], expressed as Ki, was 860 ± 60 µM. The compound further returned an IC50 in series [4] of 23.9 ± 0.82 µM.
Regarding VELWP, the “Inhibition pattern on ACE” value in series [6] is “noncompetitive inhibition”.
On to YASGR, for which the IC50 in series [6] (setting [10]) was 184 µM.
YIPIQYVLSR: the IC50 in series [6] (setting [10]) was 132 µM.
